# Key:
# HT-29 [1] = assay: Growth inhibition of human HT-29 cells assessed as cell growth at 10 uM incubated for 48 hrs by sulforhodamine B assay relative to control; type: functional; conditions: HT-29, 48 h, read-out: Activity
# CCRF-CEM = assay: Growth inhibition of human CCRF-CEM cells incubated for 48 hrs by sulforhodamine B assay; type: functional, cell-based
# HCT-15 [2] = assay: Growth inhibition of human HCT15 cells incubated for 48 hrs by sulforhodamine B assay; type: functional, cell-based; conditions: HCT-15, 48 h
# HT-29 [3] = assay: Growth inhibition of human HT-29 cells incubated for 48 hrs by sulforhodamine B assay; type: functional, cell-based; conditions: HT-29, 48 h
# OVCAR-8 [4] = assay: Growth inhibition of human OVCAR8 cells incubated for 48 hrs by sulforhodamine B assay; type: functional, cell-based; conditions: OVCAR-8, 48 h
# SN12C [5] = assay: Growth inhibition of human SN12C cells incubated for 48 hrs by sulforhodamine B assay; type: functional, cell-based
# BT-549 [6] = assay: Growth inhibition of human BT549 cells incubated for 48 hrs by sulforhodamine B assay; type: functional, cell-based; conditions: BT-549, 48 h
# A549 = assay: Growth inhibition of human A549/ATCC cells assessed as cell growth at 0.01 uM incubated for 48 hrs by sulforhodamine B assay relative to control; type: functional; conditions: A549, 48 h, read-out: Activity
# SF-268 = assay: Growth inhibition of human SF268 cells assessed as cell growth at 0.01 uM incubated for 48 hrs by sulforhodamine B assay relative to control; type: functional; conditions: SF-268, 48 h, read-out: Activity
# SK-MEL-28 = assay: Growth inhibition of human SK-MEL-28 cells assessed as cell growth at 0.01 uM incubated for 48 hrs by sulforhodamine B assay relative to control; type: functional; conditions: SK-MEL-28, 48 h, read-out: Activity
# OVCAR-5 = assay: Growth inhibition of human OVCAR5 cells assessed as cell growth at 0.01 uM incubated for 48 hrs by sulforhodamine B assay relative to control; type: functional; conditions: OVCAR-5, 48 h, read-out: Activity
# SN12C [7] = assay: Growth inhibition of human SN12C cells assessed as cell growth at 0.01 uM incubated for 48 hrs by sulforhodamine B assay relative to control; type: functional; conditions: read-out: Activity
# MDA-MB-468 = assay: Growth inhibition of human MDA-MB-468 cells assessed as cell growth at 0.01 uM incubated for 48 hrs by sulforhodamine B assay relative to control; type: functional; conditions: MDA-MB-468, 48 h, read-out: Activity
# K562 = assay: Growth inhibition of human K562 cells assessed as cell growth at 0.1 uM incubated for 48 hrs by sulforhodamine B assay relative to control; type: functional; conditions: K562, 48 h, read-out: Activity
# HCT-15 [8] = assay: Growth inhibition of human HCT15 cells assessed as cell growth at 0.1 uM incubated for 48 hrs by sulforhodamine B assay relative to control; type: functional; conditions: HCT-15, 48 h, read-out: Activity
# HT-29 [9] = assay: Growth inhibition of human HT-29 cells assessed as cell growth at 0.1 uM incubated for 48 hrs by sulforhodamine B assay relative to control; type: functional; conditions: HT-29, 48 h, read-out: Activity
# OVCAR-8 [10] = assay: Growth inhibition of human OVCAR8 cells assessed as cell growth at 0.1 uM incubated for 48 hrs by sulforhodamine B assay relative to control; type: functional; conditions: OVCAR-8, 48 h, read-out: Activity
# UO-31 = assay: Growth inhibition of human UO31 cells assessed as cell growth at 0.1 uM incubated for 48 hrs by sulforhodamine B assay relative to control; type: functional; conditions: UO-31, 48 h, read-out: Activity
# DU-145 = assay: Growth inhibition of human DU145 cells assessed as cell growth at 0.1 uM incubated for 48 hrs by sulforhodamine B assay relative to control; type: functional; conditions: DU-145, 48 h, read-out: Activity
# MOLT-4 = assay: Growth inhibition of human MOLT4 cells assessed as cell growth at 1 uM incubated for 48 hrs by sulforhodamine B assay relative to control; type: functional; conditions: MOLT-4, 48 h, read-out: Activity
# SW-620 = assay: Growth inhibition of human SW620 cells assessed as cell growth at 1 uM incubated for 48 hrs by sulforhodamine B assay relative to control; type: functional; conditions: SW-620, 48 h, read-out: Activity
# SNB-75 = assay: Growth inhibition of human SNB75 cells assessed as cell growth at 1 uM incubated for 48 hrs by sulforhodamine B assay relative to control; type: functional; conditions: SNB-75, 48 h, read-out: Activity
# MDA-MB-435 = assay: Growth inhibition of human MDA-MB-435 cells assessed as cell growth at 1 uM incubated for 48 hrs by sulforhodamine B assay relative to control; type: functional; conditions: MDA-MB-435, 48 h, read-out: Activity
# A498 = assay: Growth inhibition of human A498 cells assessed as cell growth at 1 uM incubated for 48 hrs by sulforhodamine B assay relative to control; type: functional; conditions: A498, 48 h, read-out: Activity
# RXF 393 = assay: Growth inhibition of human RXF393 cells assessed as cell growth at 1 uM incubated for 48 hrs by sulforhodamine B assay relative to control; type: functional; conditions: RXF 393, 48 h, read-out: Activity
# MDA-MB-231 = assay: Growth inhibition of human MDA-MB-231 cells assessed as cell growth at 1 uM incubated for 48 hrs by sulforhodamine B assay relative to control; type: functional; conditions: MDA-MB-231, 48 h, read-out: Activity
# NCI-H322M = assay: Growth inhibition of human NCI-H322M cells assessed as cell growth at 100 uM incubated for 48 hrs by sulforhodamine B assay relative to control; type: functional; conditions: read-out: Activity
# BT-549 [11] = assay: Growth inhibition of human BT549 cells assessed as cell growth at 100 uM incubated for 48 hrs by sulforhodamine B assay relative to control; type: functional; conditions: BT-549, 48 h, read-out: Activity
# [12] = read-out: LC50 (the source's name)
# [13] = read-out: pLC50 (the source's name) (converted)
smiles,measurement,setting,value
O=C(Nc1cccc(-n2cc(-c3ccncc3)c(-c3cc(O)cc(Cl)c3)n2)c1)Nc1ccc(Cl)c(C(F)(F)F)c1,growth at 10 µM,HT-29 [1],35.3%
same,GI50,CCRF-CEM; read-out: GI50,2.73 µM
same,CC50,CCRF-CEM; [12],> 100 µM
same,TGI,CCRF-CEM; read-out: TGI,85 µM
same,GI50,CCRF-CEM; read-out: pGI50 (converted),2.75 µM
same,CC50,CCRF-CEM; [13],> 100 µM
same,TGI,CCRF-CEM; read-out: pTGI (converted),8.91 µM
same,GI50,HCT-15 [2]; read-out: GI50,2.21 µM
same,CC50,HCT-15 [2]; [12],50.6 µM
same,TGI,HCT-15 [2]; read-out: TGI,60.1 µM
same,GI50,HCT-15 [2]; read-out: pGI50 (converted),2.82 µM
same,CC50,HCT-15 [2]; [13],60.3 µM
same,TGI,HCT-15 [2]; read-out: pTGI (converted),6.03 µM
same,GI50,HT-29 [3]; read-out: GI50,2.12 µM
same,CC50,HT-29 [3]; [12],95.9 µM
same,TGI,HT-29 [3]; read-out: TGI,45.7 µM
same,GI50,HT-29 [3]; read-out: pGI50 (converted),2.14 µM
same,CC50,HT-29 [3]; [13],10 µM
same,TGI,HT-29 [3]; read-out: pTGI (converted),4.57 µM
same,GI50,OVCAR-8 [4]; read-out: GI50,2.15 µM
same,CC50,OVCAR-8 [4]; [12],50.1 µM
same,TGI,OVCAR-8 [4]; read-out: TGI,55.5 µM
same,GI50,OVCAR-8 [4]; read-out: pGI50 (converted),2.14 µM
same,CC50,OVCAR-8 [4]; [13],79.4 µM
same,TGI,OVCAR-8 [4]; read-out: pTGI (converted),5.62 µM
same,GI50,SN12C [5]; read-out: GI50,3.44 µM
same,LC50,SN12C [5]; read-out: LC50,> 100 µM
same,TGI,SN12C [5]; read-out: TGI,17.2 µM
same,GI50,SN12C [5]; read-out: pGI50 (converted),3.55 µM
same,LC50,SN12C [5]; read-out: pLC50 (converted),> 100 µM
same,TGI,SN12C [5]; read-out: pTGI (converted),17 µM
same,GI50,BT-549 [6]; read-out: GI50,2.25 µM
same,CC50,BT-549 [6]; [12],23.7 µM
same,TGI,BT-549 [6]; read-out: TGI,51.5 µM
same,GI50,BT-549 [6]; read-out: pGI50 (converted),2.82 µM
same,CC50,BT-549 [6]; [13],23.4 µM
same,TGI,BT-549 [6]; read-out: pTGI (converted),6.17 µM
same,growth at 0.01 µM,A549,101%
same,growth at 0.01 µM,SF-268,95%
same,growth at 0.01 µM,SK-MEL-28,97%
same,growth at 0.01 µM,OVCAR-5,98%
same,growth at 0.01 µM,SN12C [7],102%
same,growth at 0.01 µM,MDA-MB-468,93%
same,growth at 0.1 µM,K562,94%
same,growth at 0.1 µM,HCT-15 [8],88%
same,growth at 0.1 µM,HT-29 [9],93%
same,growth at 0.1 µM,OVCAR-8 [10],100%
same,growth at 0.1 µM,UO-31,83%
same,growth at 0.1 µM,DU-145,99%
same,growth at 1 µM,MOLT-4,52%
same,growth at 1 µM,SW-620,101%
same,growth at 1 µM,SNB-75,54%
same,growth at 1 µM,MDA-MB-435,57%
same,growth at 1 µM,A498,92%
same,growth at 1 µM,RXF 393,58%
same,growth at 1 µM,MDA-MB-231,77%
same,growth at 100 µM,NCI-H322M,-81%
same,growth at 100 µM,BT-549 [11],-93%

# Source: ChEMBL document CHEMBL4308841, “Synthesis, in vitro antiproliferative activity, and kinase inhibitory effects of pyrazole-containing diarylureas and diarylamides” (Eur J Med Chem, 2018)
